The target of test [1] is Acetylcholinesterase (Electrophorus electricus, UniProt O42275). Nature of the test: AChE and BChE Inhibition Activity. Conditions: pH 8. As for the experimental part:
(§1) Inhibitory activities of AChE and BChE were evaluated by using the Ellman's method [34]. […] For initial screening each compound was dissolved in DMSO (end concentration of DMSO was less than 1% in assay) and tested at a final concentration of 0.5 mM. The compounds with considerable inhibition (more than 50%) were subjected to further analysis by making their 8 to 10 serial dilutions in assay buffer (50 mM Tris-HCl, 0.1 M NaCl and 0.02 M MgCl2, pH 8.0). Reaction mixture comprised of 20 µL assay buffer, 10 µL of test compound, 10 µL of 0.031 U/mL of enzyme (0.5 and 3.4 U/mg of AChE or BuChE respectively). This mixture was incubated at 25 °C for 10 min. After this preincubation, enzymatic reaction was started by addition of 10 µL of 1 mM acetylethiocholine iodide or butyrylthiocholine chloride (depending on the enzyme) and the mixture was incubated again for 15 min. The amount of enzymatic product was esti

Test [2] addresses Carboxylic ester hydrolase (Equus caballus, UniProt Q9N1N9). Briefly: AChE and BChE Inhibition Activity. Conditions: pH 8. Here is the method:
as §1

Carboxylic ester hydrolase, sequence (Q9N1N9 whole entry): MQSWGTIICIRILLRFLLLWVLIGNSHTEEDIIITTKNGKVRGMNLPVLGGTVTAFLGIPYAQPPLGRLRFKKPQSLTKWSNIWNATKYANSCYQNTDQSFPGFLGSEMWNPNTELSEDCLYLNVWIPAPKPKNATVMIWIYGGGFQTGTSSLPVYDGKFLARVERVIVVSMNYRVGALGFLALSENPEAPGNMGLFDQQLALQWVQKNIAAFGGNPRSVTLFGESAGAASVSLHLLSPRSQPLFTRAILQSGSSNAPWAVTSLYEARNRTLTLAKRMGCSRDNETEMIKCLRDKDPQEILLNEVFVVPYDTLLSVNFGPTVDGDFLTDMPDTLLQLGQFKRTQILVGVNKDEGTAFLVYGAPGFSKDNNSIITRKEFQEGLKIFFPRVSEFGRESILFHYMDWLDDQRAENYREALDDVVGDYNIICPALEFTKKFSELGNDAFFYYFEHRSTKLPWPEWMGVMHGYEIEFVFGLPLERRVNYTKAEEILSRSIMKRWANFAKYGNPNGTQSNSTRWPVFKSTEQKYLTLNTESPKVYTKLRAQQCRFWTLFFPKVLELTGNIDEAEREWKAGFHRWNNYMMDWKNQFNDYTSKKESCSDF
Acetylcholinesterase, sequence (O42275 whole entry): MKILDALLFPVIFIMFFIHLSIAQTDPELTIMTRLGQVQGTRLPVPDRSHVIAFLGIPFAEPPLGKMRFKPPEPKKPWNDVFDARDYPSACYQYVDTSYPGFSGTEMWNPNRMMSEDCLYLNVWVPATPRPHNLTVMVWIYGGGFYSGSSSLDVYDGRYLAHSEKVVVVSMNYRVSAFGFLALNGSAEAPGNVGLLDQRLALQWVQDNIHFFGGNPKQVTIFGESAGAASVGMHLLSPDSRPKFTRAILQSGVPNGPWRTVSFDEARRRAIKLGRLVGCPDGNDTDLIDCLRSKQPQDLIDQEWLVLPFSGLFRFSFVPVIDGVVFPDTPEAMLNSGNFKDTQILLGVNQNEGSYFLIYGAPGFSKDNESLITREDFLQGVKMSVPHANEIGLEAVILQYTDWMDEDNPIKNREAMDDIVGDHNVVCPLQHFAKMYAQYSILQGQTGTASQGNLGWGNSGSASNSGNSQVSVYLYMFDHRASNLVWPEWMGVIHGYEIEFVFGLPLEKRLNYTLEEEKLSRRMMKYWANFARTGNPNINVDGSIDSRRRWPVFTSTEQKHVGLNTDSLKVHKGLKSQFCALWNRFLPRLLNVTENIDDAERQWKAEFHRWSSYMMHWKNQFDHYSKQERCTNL

As to `COc1ccccc1C1=C(C#N)C(=C(C#N)c2nnn[nH]2)NC(C)(c2ccccc2OC)C1` (centres undefined) [2-(Cyano(1H-tetrazol-5-yl)methylene)-6-methyl-4,6-bis(2'/2''-methoxyphenyl)-1,2,5,6-tetrahydronicotinonitrile (2g)], the concentration for half-maximal inhibition (IC50) (as a rule, the concentration at which inhibition is half-maximal) in test [1] was found to be 20.3 µM; in test [2] it was 0.29 µM.

In the case of `CC1(c2cccc(Cl)c2)CC(c2cccc(Cl)c2)=C(C#N)C(=C(C#N)c2nnn[nH]2)N1` (centres undefined) [2-(Cyano(1H-tetrazol-5-yl)methylene)-6-methyl-4,6-bis(3'/3''-chlorophenyl)-1,2,5,6-tetrahydronicotinonitrile (2e)], the IC50 in test [1] stood at 2.32 µM; in test [2], 2.78 µM.

Take `COc1cccc(C2=C(C#N)C(=C(C#N)c3nnn[nH]3)NC(C)(c3cccc(OC)c3)C2)c1` (centres undefined) [2-(Cyano(1H-tetrazol-5-yl)methylene)-6-methyl-4,6-bis(3'/3''-methoxyphenyl)-1,2,5,6-tetrahydronicotinonitrile (2f)]: the 50% inhibitory concentration (IC50) in test [1] was found to be 5.11 µM; in test [2], 39.2 µM.

Take `Cc1cccc(C2=C(C#N)C(=C(C#N)c3nnn[nH]3)NC(C)(c3cccc(C)c3)C2)c1` (centres undefined) [2-(Cyano(1H-tetrazol-5-yl)methylene)-6-methyl-4,6-bis(3'/3''-methylphenyl)-1,2,5,6-tetrahydronicotinonitrile (2c)]: the IC50 in test [1] was determined as 20.8 µM; in test [2], 62.2 µM.

Turning to `CC1(c2ccc(F)cc2)CC(c2ccc(F)cc2)=C(C#N)C(=C(C#N)c2nnn[nH]2)N1` (centres undefined) [2-(Cyano(1H-tetrazol-5-yl)methylene)-6-methyl-4,6-bis(4'/4''-fluorophenyl)-1,2,5,6-tetrahydronicotinonitrile (2d)], the IC50 in test [1] was 2.01 µM; in test [2], 38.8 µM.

For `CC1(c2ccc(O)cc2)CC(c2ccc(O)cc2)=C(C#N)C(=C(C#N)c2nnn[nH]2)N1` (centres undefined) [2-(Cyano(1H-tetrazol-5-yl)methylene)-6-methyl-4,6-bis(4'/4''-hydroxyphenyl)-1,2,5,6-tetrahydronicotinonitrile (2h)], the IC50 was found to be 7.42 µM in test [1] and 2.45 µM in test [2].

`Cc1ccc(C2=C(C#N)C(=C(C#N)c3nnn[nH]3)NC(C)(c3ccc(C)cc3)C2)cc1` (centres undefined) [2-(Cyano(1H-tetrazol-5-yl)methylene)-6-methyl-4,6-bis(4'/4''-methylphenyl)-1,2,5,6-tetrahydronicotinonitrile (2b)]: the results for the IC50 in test [1] and in test [2] were 4.45 µM and 5.87 µM, respectively.

Turning to `CC1(c2ccccc2)CC(c2ccccc2)=C(C#N)C(=C(C#N)c2nnn[nH]2)N1` (centres undefined) [2-(Cyano(1H-tetrazol-5-yl)methylene)-6-methyl-4,6-bis(phenyl)-1,2,5,6-tetrahydronicotinonitrile (2a)], the values for the IC50 in test [1] and in test [2] were 7.02 µM and 22.1 µM, respectively.

As to `CC1(c2ccccc2)CC(c2ccccc2)=C(C#N)C(=C(C#N)C#N)N1` (centres undefined) [2-Dicyanomethylene-6-methyl-4,6-bis(phenyl)-1,2,5,6-tetrahydronicotinonitrile (5a)], the half-maximal inhibitory concentration (IC50) stood at 20.3 µM in test [1] and 48.1 µM in test [2].

`CC1(c2cccc(F)c2)CC(c2cccc(F)c2)=C(C#N)C(=C(C#N)C#N)N1` (centres undefined) [2-[3-cyano-4,6-bis(3-fluorophenyl)-6-methyl-1,2,5,6-tetrahydropyridin-2-ylidene]propanedinitrile (5f)]: the concentration for half-maximal inhibition (IC50) in test [1] came out at 8.01 µM; in test [2] it was 68.8 µM.

On to `COc1cccc(C2=C(C#N)C(=C(C#N)C#N)NC(C)(c3cccc(OC)c3)C2)c1` (centres undefined) [2-[3-cyano-4,6-bis(3-methoxyphenyl)-6-methyl-1,2,5,6-tetrahydropyridin-2-ylidene]propanedinitrile (5g)], for which the results for the IC50 in test [1] and in test [2] were 1.56 µM and 48.2 µM, respectively.

Regarding `CC1(c2ccc(F)cc2)CC(c2ccc(F)cc2)=C(C#N)C(=C(C#N)C#N)N1` (centres undefined) [2-[3-cyano-4,6-bis(4-fluorophenyl)-6-methyl-1,2,5,6-tetrahydropyridin-2-ylidene]propanedinitrile (5d)], the results for the IC50 in test [1] and in test [2] were 11.9 µM and 55.2 µM, respectively.

As to `CC1(c2ccc(O)cc2)CC(c2ccc(O)cc2)=C(C#N)C(=C(C#N)C#N)N1` (centres undefined) [2-[3-cyano-4,6-bis(4-hydroxyphenyl)-6-methyl-1,2,5,6-tetrahydropyridin-2-ylidene]propanedinitrile (5h)], the concentration for half-maximal inhibition (IC50) in test [1] is 5.38 µM; in test [2] it was 42.2 µM.

Consider `CC1(c2ccc(I)cc2)CC(c2ccc(I)cc2)=C(C#N)C(=C(C#N)C#N)N1` (centres undefined) [2-[3-cyano-4,6-bis(4-iodophenyl)-6-methyl-1,2,5,6-tetrahydropyridin-2-ylidene]propanedinitrile (5e)], for which the IC50 turned out to be 11.2 µM in test [1] and 45.3 µM in test [2].

`Cc1cccc(C2=C(C#N)C(=C(C#N)C#N)NC(C)(c3cccc(C)c3)C2)c1` (centres undefined) [2-[3-cyano-6-methyl-4,6-bis(3-methylphenyl)-1,2,5,6-tetrahydropyridin-2-ylidene]propanedinitrile (5c)]: the IC50 was 5.21 µM in test [1] and 35.9 µM in test [2].

As to `Cc1ccc(C2=C(C#N)C(=C(C#N)C#N)NC(C)(c3ccc(C)cc3)C2)cc1` (centres undefined) [2-[3-cyano-6-methyl-4,6-bis(4-methylphenyl)-1,2,5,6-tetrahydropyridin-2-ylidene]propanedinitrile (5b)], the IC50 stood at 16.9 µM in test [1] and 36.5 µM in test [2].

As to `CN(C)C(=O)Oc1cccc([N+](C)(C)C)c1` [m-Trimethylammoniumphenyldimethylcarbamate], the results for the 50% inhibitory concentration (IC50) in test [1] and in test [2] were 19.3 µM and 43.2 µM, respectively.
